For 12 compounds, IC50 results are on record in US20250145589A1, “PYRIDINE DERIVATIVE AND USE THEREOF” (SICHUAN HUIYU PHARMACEUTICAL CO., LTD., priority 2021, published 2025).

Read-outs that look alike come from different tables or passages of the source.

Assay [1] relates to MIA PaCa-2 cells (KRAS G12C mutant). Description: MIA PaCa-2 cell anti-proliferation (CellTiter-Glo). The note with it: Homo sapiens, 72 h; MIA Paca-2 cells, 3 days, Table 7; read-out: MIA PaCa-2 (IC50). It is filed as cell-based. In outline:
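Viable-cell luminescence (CellTiter-Glo, ≥30 min at 25 °C) measured after a 3-day, 37 °C exposure to compounds at 9 points, 4-fold spaced, in DMEM containing 10% FBS plus 2.5% horse serum. IC50 derived versus no-inhibitor wells.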

Another assay deals with PI3Kα (Homo sapiens (Human), UniProt P42336). Briefly: Inhibition of PI3Kα efficacy assay (ADP-Glo kinase assay). Type of assay: biochemical. The note with it: read-out: PI3Kα inhibitory activity (IC50). In outline: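 Eight five-fold dilutions of compound (2 mM DMSO stock) tested; kinase reaction with PI and ATP ran 60 min at RT, followed by ADP-Glo and detection reagent steps of 40 min each. Four-parameter logistic fitting gave IC50 values.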

Assay [2] deals with NCI-H358 cells (KRAS G12C mutant). Briefly: NCI-H358 cell proliferation inhibition (CellTiter-Glo). It is filed as cell-based. The note with it: Homo sapiens, NCI-H358, 72 h; H358 cells (G12C mutation), 3 days, Table 6; read-out: NCI-H358 (IC50).
A further assay has as its target PI3Kδ (Homo sapiens (Human), UniProt O00329). Description: Inhibition of PI3Kδ efficacy assay (ADP-Glo kinase assay). It is filed as biochemical. The note with it: read-out: PI3Kδ inhibitory activity (IC50). Put shortly:
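Luminescent ADP-Glo readout of PI3Kδ: after a 60 min RT reaction with PI/ATP substrate, ATP depletion (40 min) and ADP detection (40 min) steps followed. Compounds tested as eight five-fold serial dilutions; inhibition rates fitted to log(inhibitor) vs. response, variable slope, for IC50.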

In the next assay the target is KRAS^G12C-SOS1 (Homo sapiens (Human), UniProt P01116, G12C). Description: HTRF KRAS G12C/SOS1 binding assay. The note with it: Table 5. The protocol: Initially, a 2 mM stock solution of the test compound (dissolved in DMSO) was serially diluted in five-fold concentrations using DMSO to obtain eight working solutions 1 (200×). Subsequently, each of the eight working solutions 1 was further diluted in a 20-fold gradient by adding 5 μL into 95 μL of Diluent buffer, mixed completely with vortex mixer, resulting in eight working solutions 2 (10×). […] Subsequently, 5 μL of Anti-tag 1-Tb^3+ stock solution and 5 μL of Anti-tag2-XL665 were added to each well, mixed, and incubated at 4° C. for 3 hours. Remove the plate and read on an HTRF® compatible reader, with the excitation light wavelength set at 337 nm and readings recorded at 620 nm and 665 nm. The data results were presented as the ratio of the 665 nm signal value to the 620 nm signal value for each well, calculated as follows: […]. The inhibition rate was calculated using the following formula: […]
Data were analyzed using GraphPad Prism with log (inhibitor) vs. response-Variable Slope (four parameters) fitting calculations for IC50 values.

For assay [3], the system named is NCI-H358-AMGR drug-resistant cell line. Briefly: NCI-H358-AMGR drug-resistant cell proliferation inhibitory activity test. The note with it: 72 h; NCI-H358-AMGR drug-resistant cells, 3 days incubation, CellTiter-Glo. It is filed as cell-based. On the procedure: Test Example 6t Generation of NCI-H358-AMGR Drug-Resistant Cell Line
NCI-H358 cells were seeded and cultured at 50 to 70% confluence in six-well plate with RPMI-640 (10% FBS) medium at 37° C. with 5%4 CO2. AMG510 was added for induction at three starting concentrations of 1 nM, 10 nM and 50 nM, and the medium containing the same concentration of AMG510 was replaced every 3 days. Cells were passaged once they reached confluence. After every, two passages at a given concentration of drug, the concentration was increased in a 3-old increment until final concentrations of 1 μM for AMG510 was achieved.
NCI-H358-AMGR cells in logarithmic growth phase were collected and seeded into a clear-bottom 96-well plate at a density of 4×10^3 cells per well in 80 μL of medium, and then incubated overnight at 37° C. with 5% CO2. The compounds were serially diluted 5-fold in DMSO to obtain 8 concentrations, and then further diluted with RPMI-640) (10% FBS) cell culture medium to obtain the working solutions (5×), 20 μL of each working solution was added to the cell culture supernatant in each well, and the plate was further incubated for 3 days at 37° C. with 5% CO2. The plate was then equilibrated with CellTiter-Glo® reagent at room temperature (25° C.) for 10-30 minutes. After aspirating 50 μL of the medium, 50 μL of CellTiter-Glo®, reagent was added. The cells were thoroughly mixed with the CellTiter-Glo®, reagent using a microplate shaker for 2 minutes, and then incubated at room temperature for 10 minutes. The […] was placed in a multi-mode microplate reader to record the luminescence values (RLU).
The inhibitory rate was calculated using the following formula: […]
Data were analyzed using GraphPad Prism for IC50 values (Note: The negative control refers to the group without inhibitor).

Chain of PI3Kα (P42336 whole entry): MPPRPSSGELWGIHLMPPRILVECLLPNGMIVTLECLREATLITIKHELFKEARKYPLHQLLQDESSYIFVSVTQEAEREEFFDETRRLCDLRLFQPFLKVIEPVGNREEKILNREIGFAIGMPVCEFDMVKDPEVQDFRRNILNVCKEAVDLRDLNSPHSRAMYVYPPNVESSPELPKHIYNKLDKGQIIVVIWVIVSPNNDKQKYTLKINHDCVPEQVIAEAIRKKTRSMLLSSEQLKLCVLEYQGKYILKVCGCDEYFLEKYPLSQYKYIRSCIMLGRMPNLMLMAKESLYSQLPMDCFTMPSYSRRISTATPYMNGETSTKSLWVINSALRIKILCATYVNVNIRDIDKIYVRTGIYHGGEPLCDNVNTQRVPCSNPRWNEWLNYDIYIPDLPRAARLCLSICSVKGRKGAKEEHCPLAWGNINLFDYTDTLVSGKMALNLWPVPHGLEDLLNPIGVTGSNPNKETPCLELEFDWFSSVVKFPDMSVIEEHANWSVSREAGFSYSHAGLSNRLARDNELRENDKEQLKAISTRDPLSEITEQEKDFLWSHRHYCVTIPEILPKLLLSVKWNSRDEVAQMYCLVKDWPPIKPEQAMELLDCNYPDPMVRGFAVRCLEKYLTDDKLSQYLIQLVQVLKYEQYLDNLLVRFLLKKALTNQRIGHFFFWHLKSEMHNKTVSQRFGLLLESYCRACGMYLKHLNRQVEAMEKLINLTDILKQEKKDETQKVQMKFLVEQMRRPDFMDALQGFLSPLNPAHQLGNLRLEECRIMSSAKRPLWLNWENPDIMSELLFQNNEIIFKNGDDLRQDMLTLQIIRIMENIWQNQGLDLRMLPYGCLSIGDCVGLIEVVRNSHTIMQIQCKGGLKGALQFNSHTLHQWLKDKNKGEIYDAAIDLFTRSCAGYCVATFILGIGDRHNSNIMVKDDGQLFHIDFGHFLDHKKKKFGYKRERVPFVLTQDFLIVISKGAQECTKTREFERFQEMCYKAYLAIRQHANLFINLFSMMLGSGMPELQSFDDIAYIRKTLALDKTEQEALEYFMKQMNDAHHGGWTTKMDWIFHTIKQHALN
Chain of PI3Kα (P27986 whole entry partner): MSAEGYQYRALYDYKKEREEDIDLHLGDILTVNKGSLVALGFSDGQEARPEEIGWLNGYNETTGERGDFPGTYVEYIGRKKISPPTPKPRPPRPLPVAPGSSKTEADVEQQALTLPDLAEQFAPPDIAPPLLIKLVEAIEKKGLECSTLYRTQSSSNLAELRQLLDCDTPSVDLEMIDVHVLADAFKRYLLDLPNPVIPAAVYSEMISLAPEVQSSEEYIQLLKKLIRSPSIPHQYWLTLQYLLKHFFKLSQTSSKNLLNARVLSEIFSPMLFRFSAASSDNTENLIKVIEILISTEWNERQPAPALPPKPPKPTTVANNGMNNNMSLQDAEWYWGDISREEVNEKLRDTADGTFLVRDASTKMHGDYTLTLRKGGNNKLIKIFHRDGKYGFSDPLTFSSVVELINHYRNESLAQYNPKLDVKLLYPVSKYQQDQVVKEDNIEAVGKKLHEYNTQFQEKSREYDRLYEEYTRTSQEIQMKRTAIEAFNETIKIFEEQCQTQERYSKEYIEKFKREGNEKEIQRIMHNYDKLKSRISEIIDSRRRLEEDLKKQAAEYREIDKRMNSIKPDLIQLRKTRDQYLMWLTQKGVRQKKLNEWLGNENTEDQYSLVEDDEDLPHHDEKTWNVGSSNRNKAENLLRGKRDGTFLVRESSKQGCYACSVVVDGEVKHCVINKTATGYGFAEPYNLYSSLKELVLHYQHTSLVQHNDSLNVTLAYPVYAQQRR
Chain of KRAS^G12C-SOS1 (P01116-2 other isoform, or with tags, fused parts or gaps G12C): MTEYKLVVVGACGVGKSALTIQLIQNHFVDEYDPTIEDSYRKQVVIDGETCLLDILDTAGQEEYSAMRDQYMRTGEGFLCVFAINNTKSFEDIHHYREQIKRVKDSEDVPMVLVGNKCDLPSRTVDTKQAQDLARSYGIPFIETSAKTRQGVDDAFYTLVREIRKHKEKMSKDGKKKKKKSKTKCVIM
Chain of PI3Kδ (O00329 whole entry): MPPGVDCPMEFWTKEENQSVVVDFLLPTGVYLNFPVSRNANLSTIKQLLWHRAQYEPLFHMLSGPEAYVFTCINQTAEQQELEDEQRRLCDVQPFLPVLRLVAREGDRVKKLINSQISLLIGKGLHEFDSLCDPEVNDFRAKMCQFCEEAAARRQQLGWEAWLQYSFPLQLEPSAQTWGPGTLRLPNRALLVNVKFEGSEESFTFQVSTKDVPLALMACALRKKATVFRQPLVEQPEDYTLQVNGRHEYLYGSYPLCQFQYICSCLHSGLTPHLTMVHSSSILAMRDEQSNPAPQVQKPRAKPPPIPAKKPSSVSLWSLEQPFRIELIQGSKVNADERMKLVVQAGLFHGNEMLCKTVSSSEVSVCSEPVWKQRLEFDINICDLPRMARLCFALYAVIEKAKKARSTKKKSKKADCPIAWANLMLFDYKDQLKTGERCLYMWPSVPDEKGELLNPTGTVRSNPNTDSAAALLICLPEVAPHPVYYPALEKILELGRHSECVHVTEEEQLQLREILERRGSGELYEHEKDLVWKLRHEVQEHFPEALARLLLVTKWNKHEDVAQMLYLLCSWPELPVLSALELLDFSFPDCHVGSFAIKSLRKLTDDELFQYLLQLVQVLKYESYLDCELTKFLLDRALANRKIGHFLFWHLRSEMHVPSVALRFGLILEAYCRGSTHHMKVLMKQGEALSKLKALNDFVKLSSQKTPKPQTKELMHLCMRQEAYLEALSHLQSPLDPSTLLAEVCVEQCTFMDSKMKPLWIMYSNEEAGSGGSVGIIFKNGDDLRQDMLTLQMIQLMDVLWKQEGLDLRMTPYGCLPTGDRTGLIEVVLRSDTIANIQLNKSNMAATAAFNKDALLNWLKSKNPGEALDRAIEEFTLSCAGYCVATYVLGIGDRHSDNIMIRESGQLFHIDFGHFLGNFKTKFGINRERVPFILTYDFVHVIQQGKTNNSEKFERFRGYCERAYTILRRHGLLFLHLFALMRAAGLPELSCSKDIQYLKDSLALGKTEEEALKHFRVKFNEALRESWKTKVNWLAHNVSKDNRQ
Chain of PI3Kδ (P27986 whole entry partner): as the sequence (P27986 whole entry partner) above

As for `COc1ncc(-c2ccc3ncnc(N4CCN(C(=O)/C=C/C(C)=O)CC4)c3n2)cc1NS(=O)(=O)c1ccccc1F` [Example 133, (E)-2-fluoro-N-(2-methoxy-5-(4-(4-(4-oxopent-2-enoyl)piperazin-1-yl)pyrido[3,2-d]pyrimidin-6-yl)pyridin-3-yl)benzenesulfonamide], the half-inhibitory concentration (IC50) in assay [1] was determined as 12 nM; at PI3Kα (Table 3) it was 5.4 nM; in assay [2] it was 4.1 nM; at PI3Kδ (Table 3) it was 20.4 nM; on KRAS^G12C-SOS1, 251 nM.

Turning to `CC(=O)/C=C/C(=O)N1CCN(c2ncnc3ccc(-c4cnc(Cl)c(NS(=O)(=O)c5ccc(F)cc5F)c4)cc23)CC1` [Example 34, (E)-N-(2-chloro-5-(4-(4-(4-oxopent-2-enoyl)piperazin-1-yl)quinazolin-6-yl)pyridin-3-yl)-2,4-difluorobenzenesulfonamide], the IC50 in assay [1] was 254 nM; on PI3Kα (Table 1), 1.4 nM; at PI3Kδ (Table 1) it was 20.8 nM; on KRAS^G12C-SOS1, 521 nM.

Take `CNC(=O)/C=C/C(=O)N1CCN(c2ncnc3ccc(-c4cnc(OC)c(NS(=O)(=O)c5ccc(F)cc5F)c4)cc23)CC1` [Example 179, (E)-4-(4-(6-(5-((2,4-difluorophenyl)sulfonamido)-6-methoxy-pyridin-3-yl)quinazolin-4-yl)piperazin-1-yl)-N-methyl-4-oxobut-2-enamide]: the IC50 in assay [1] turned out to be 87.8 nM; on PI3Kα (Table 4), 0.37 nM; in assay [2] it was 276 nM; at KRAS^G12C-SOS1, 147 nM.

In the case of `COc1ncc(-c2ccc3ncnc(N4CCC5(CN(C(=O)/C=C/C(C)=O)C5)C4)c3c2)cc1NS(=O)(=O)c1c(F)cc(F)cc1F` [Example 97, (E)-2,4,6-trifluoro-N-(2-methoxy-5-(4-(2-(4-oxopent-2-enoyl)-2,6-diazaspiro[3.4]octan-6-yl)quinazolin-6-yl)pyridin-3-yl)benzenesulfonamide], the IC50 in assay [1] stood at 109 nM; on PI3Kα (Table 2), 1.4 nM; in assay [2], 13.7 nM; on PI3Kδ (Table 2) it was 14.1 nM; on KRAS^G12C-SOS1, 101 nM.

`COc1ncc(-c2ccc3ncnc(N4CCN(C(=O)/C=C/C(C)=O)CC4)c3c2)cc1NS(=O)(=O)c1ccncc1F` [Example 103, (E)-3-fluoro-N-(2-methoxy-5-(4-(4-(4-oxopent-2-enoyl)piperazin-1-yl)quinazolin-6-yl)pyridin-3-yl)pyridine-4-sulfonamide]: the IC50 worked out at 344 nM in assay [1]; 0.95 nM at PI3Kα (Table 2); 83 nM in assay [2]; 32.2 nM on PI3Kδ (Table 2); 203 nM at KRAS^G12C-SOS1.

With `COc1ncc(-c2ccc3ncnc(N4CCN(C(=O)/C=C/C(C)=O)CC4)c3c2)cc1NS(=O)(=O)c1cc(Cl)cn1C` [Example 104, (E)-4-Chloro-N-(2-methoxy-5-(4-(4-(4-oxopent-2-enoyl)piperazin-1-yl)quinazoline-6-yl)pyridin-3-yl)-1-methyl-1H-pyrrole-2-sulfonamide], the IC50 came out at 139 nM in assay [1]; 3.8 nM at PI3Kα (Table 2); 74.2 nM in assay [2]; 32.2 nM on PI3Kδ (Table 2); 169 nM at KRAS^G12C-SOS1.

For the compound `CC(=O)/C=C/C(=O)N1CCN(c2ncnc3ccc(-c4cnc(Cl)c(NS(=O)(=O)c5c(F)cccc5F)c4)cc23)CC1` [Example 84, (E)-N-(2-chloro-5-(4-(4-(4-oxopent-2-enoyl)piperazin-1-yl)quinazolin-6-yl)pyridin-3-yl)-2,6-difluorobenzenesulfonamide], the IC50 in assay [1] was determined as 245 nM; in assay [3] it was 639 nM; at PI3Kα (Table 2), 0.83 nM; in assay [2], 13 nM; at PI3Kδ (Table 2) it was 7.6 nM; at KRAS^G12C-SOS1 it was 268 nM.

As to `CC(=O)/C=C/C(=O)N1CCN(c2ncnc3ccc(-c4cnc(Cl)c(NS(=O)(=O)c5c(F)cccc5F)c4)cc23)[C@@H](C)C1` [Example 88, (S,E)-N-(2-chloro-5-(4-(2-methyl-4-(4-oxopent-2-enoyl)piperazin-1-yl)quinazolin-6-yl)pyridin-3-yl)-2,6-difluorobenzenesulfonamide], the IC50 turned out to be 333 nM in assay [1]; 2.6 nM at PI3Kα (Table 2); 80.9 nM in assay [2]; 11.8 nM at PI3Kδ (Table 2); 219 nM on KRAS^G12C-SOS1.

Turning to `COc1ncc(-c2ccc3ncnc(N4CC5CCC(C4)N5C(=O)/C=C/C(C)=O)c3c2)cc1NS(=O)(=O)c1ccc(F)cc1F` [Example 58, 2,4-difluoro-N-(2-methoxy-5-(4-(8-((E)-4-oxopent-2-enoyl)-3,8-diazabicyclo[3.2.1]octan-3-yl)quinazolin-6-yl)pyridin-3-yl)benzenesulfon-amide], the IC50 in assay [1] was 26.2 nM; in assay [3] it was 100 nM; on PI3Kα (Table 2), 3.6 nM; in assay [2], 18.1 nM; on PI3Kδ (Table 2), 8.3 nM; at KRAS^G12C-SOS1 it was 278 nM.

As for `CC(=O)/C=C/C(=O)N1CCN(c2ncnc3ccc(-c4cnc(Cl)c(NS(=O)(=O)c5c(F)cc(F)cc5F)c4)cc23)CC1` [Example 89, (E)-N-(2-chloro-5-(4-(4-(4-oxopent-2-enoyl)piperazin-1-yl)quinazolin-6-yl)pyridin-3-yl)-2,4,6-trifluorobenzenesulfonamide], the half-maximal inhibitory concentration (IC50) in assay [1] was 511 nM; on PI3Kα (Table 2) it was 2.2 nM; in assay [2] it was 81.4 nM; at PI3Kδ (Table 2), 8.6 nM; on KRAS^G12C-SOS1, 404 nM.

As for `CC(=O)/C=C/C(=O)N1CCN(c2ncnc3ccc(-c4cnc(N(C)C)c(NS(=O)(=O)c5ccc(F)cc5F)c4)cc23)CC1` [Example 195, (E)-N-(2-(dimethylamino)-5-(4-(4-(4-oxopent-2-enoyl)piperazin-1-yl)quinazolin-6-yl)pyridin-3-yl)-2,4-difluorobenzenesulfonamide], the IC50 was found to be 93.3 nM in assay [1]; 92.3 nM in assay [3]; 2.4 nM on PI3Kα (Table 4); 43.9 nM in assay [2]; 13.5 nM at PI3Kδ (Table 4); 158 nM on KRAS^G12C-SOS1.

For the compound `COc1ncc(-c2ccc3ncnc(N4CCN(C(=O)/C=C/C(C)=O)CC4)c3n2)cc1NS(=O)(=O)c1ccc(F)cc1F` [Example 132, (E)-2,4-difluoro-N-(2-methoxy-5-(4-(4-(4-oxopent-2-enoyl)piperazin-1-yl)pyrido[3,2-d]pyrimidin-6-yl)pyridin-3-yl)benzenesulfonamide], the IC50 in assay [1] is 16.1 nM; on PI3Kα (Table 3), 3.6 nM; in assay [2], 4 nM; on PI3Kδ (Table 3), 29.2 nM; on KRAS^G12C-SOS1, 318 nM.
